Data as given in PubChem BioAssay (NCI).
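Growth conditions: 96-well plates. Treatment: test compound, 48 hours, 5 concentrations. Analysis: linear interpolation between bracketing concentrations; unreached endpoints set to highest concentration. At the TGI there is no net growth.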

What was measured:
Assay in all cases: NCI anticancer screen, dose series, 48 h
BT-549 breast = test system: BT-549 breast
CAKI-1 renal = test system: CAKI-1 renal
HOP-62 NSCLC = test system: HOP-62 NSCLC
K-562 leukemia = test system: K-562 leukemia
MCF7 breast = test system: MCF7 breast
MDA-MB-231 breast = test system: MDA-MB-231 breast
RXF 393 renal = test system: RXF 393 renal
SF-539 CNS = test system: SF-539 CNS
SNB-19 CNS = test system: SNB-19 CNS
TK-10 renal = test system: TK-10 renal

Compound | TGI (BT-549 breast) [µM] | TGI (CAKI-1 renal) [µM] | TGI (HOP-62 NSCLC) [µM] | TGI (K-562 leukemia) [µM] | TGI (MCF7 breast) [µM] | TGI (MDA-MB-231 breast) [µM] | TGI (RXF 393 renal) [µM] | TGI (SF-539 CNS) [µM] | TGI (SNB-19 CNS) [µM] | TGI (TK-10 renal) [µM]
CC1(c2cccc(Cl)c2)CC(c2cccc(Cl)c2)=C(C#N)C(=C(C#N)C#N)N1 (configuration not stated) | 51.2 | 32.3 | 41.3 | > 100 | 51.6 | 48.6 | 29.3 | 37.2 | 39.9 | 31.8
CCN(C(C)=O)c1cnc(/C=N/NC(N)=S)c2ccccc12 | > 31.1 | > 51.9 | > 60.1 | > 100 | > 23.8 | > 100 | > 100 | 13.6 | > 100 | > 100
Cc1c(Cl)c(S(N)(=O)=O)cc2c1NC=NS2(=O)=O | > 100 | > 100 | > 100 | > 100 | > 100 | > 100 | > 100 | – | > 100 | > 100
Cc1ccc(C2=C(C#N)C(=O)N3CCN=C3S2)cc1 | > 100 | > 100 | – | > 100 | > 100 | > 100 | > 100 | > 100 | > 100 | > 100
COC(=O)C1(C(=O)OC)Cc2ccc(C)cc2C2=C1C(=O)c1ccccc1C2=O | – | – | 29 | 46.5 | 35.7 | 33 | – | 61.8 | > 100 | > 100
CC(=O)c1cccc(Nc2nc3ccc(Cl)cc3c3[nH]c4ccccc4c23)c1 | > 100 | > 36.7 | 15.4 | > 56.7 | > 21.9 | 63.8 | – | 30.1 | 48.6 | 25.8
Oc1cc(-c2ccc(Cl)cc2)cn2c1nc1ccccc12 | – | > 100 | > 100 | > 100 | > 100 | > 100 | > 100 | > 100 | > 100 | > 100
Nc1ncnc2c1ncn2C1OC(CO)C(O)C(O)C1O (configuration not stated) | > 100 | > 100 | > 100 | > 100 | > 100 | > 100 | – | > 100 | > 100 | > 100
Nc1[nH]c(=S)c2c(N)n[nH]c2c1C(=O)Nc1ccccc1 | > 100 | > 100 | – | > 100 | > 100 | > 100 | > 100 | > 100 | > 100 | > 100
COc1cccc(-c2nc3ccccc3c(=O)[nH]2)c1OC | > 100 | > 100 | > 100 | – | > 100 | > 100 | > 100 | – | > 100 | –
CN1C(=O)C(c2c[nH]c3ccccc23)N(C)C(=O)C1c1c[nH]c2ccccc12 (configuration not stated) | > 100 | > 100 | > 100 | > 100 | > 100 | > 100 | > 100 | > 100 | – | > 100
